Measurements taken from ChEMBL document CHEMBL1134874, “Identification of a novel partial inhibitor of dopamine transporter among 4-substituted 2-phenylquinazolines” (Bioorg Med Chem Lett, 2002).

How the values were obtained:
[1] = target: Sodium-dependent serotonin transporter (Rattus norvegicus, UniProt P31652); assay: Inhibition of [125I]RTI-55 binding to Serotonin transporter of rat caudate membranes; type: cell membranes, Membrane
[2] = target: Sodium-dependent dopamine transporter (Rattus norvegicus, UniProt P23977); assay: Displacement of [125I]RTI-55 from Dopamine transporter of rat caudate membranes; type: cell membranes, Membrane
Chain of Sodium-dependent dopamine transporter (P23977 whole entry): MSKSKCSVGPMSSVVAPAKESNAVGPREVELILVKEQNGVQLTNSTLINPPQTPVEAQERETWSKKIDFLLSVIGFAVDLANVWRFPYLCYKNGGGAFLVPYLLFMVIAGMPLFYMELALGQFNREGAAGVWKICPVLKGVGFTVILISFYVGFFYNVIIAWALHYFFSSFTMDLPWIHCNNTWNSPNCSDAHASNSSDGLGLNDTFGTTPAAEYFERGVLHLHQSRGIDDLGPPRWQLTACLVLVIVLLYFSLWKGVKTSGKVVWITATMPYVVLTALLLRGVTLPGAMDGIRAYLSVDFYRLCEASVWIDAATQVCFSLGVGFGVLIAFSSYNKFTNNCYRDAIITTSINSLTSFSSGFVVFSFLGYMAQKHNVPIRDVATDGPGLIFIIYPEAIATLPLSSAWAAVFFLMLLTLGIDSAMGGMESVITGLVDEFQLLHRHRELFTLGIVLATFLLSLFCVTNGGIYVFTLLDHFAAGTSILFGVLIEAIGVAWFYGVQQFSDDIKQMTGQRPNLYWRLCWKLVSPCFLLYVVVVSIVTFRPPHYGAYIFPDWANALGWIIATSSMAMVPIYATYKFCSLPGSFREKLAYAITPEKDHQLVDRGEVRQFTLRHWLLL

Chain of Sodium-dependent serotonin transporter (P31652 whole entry): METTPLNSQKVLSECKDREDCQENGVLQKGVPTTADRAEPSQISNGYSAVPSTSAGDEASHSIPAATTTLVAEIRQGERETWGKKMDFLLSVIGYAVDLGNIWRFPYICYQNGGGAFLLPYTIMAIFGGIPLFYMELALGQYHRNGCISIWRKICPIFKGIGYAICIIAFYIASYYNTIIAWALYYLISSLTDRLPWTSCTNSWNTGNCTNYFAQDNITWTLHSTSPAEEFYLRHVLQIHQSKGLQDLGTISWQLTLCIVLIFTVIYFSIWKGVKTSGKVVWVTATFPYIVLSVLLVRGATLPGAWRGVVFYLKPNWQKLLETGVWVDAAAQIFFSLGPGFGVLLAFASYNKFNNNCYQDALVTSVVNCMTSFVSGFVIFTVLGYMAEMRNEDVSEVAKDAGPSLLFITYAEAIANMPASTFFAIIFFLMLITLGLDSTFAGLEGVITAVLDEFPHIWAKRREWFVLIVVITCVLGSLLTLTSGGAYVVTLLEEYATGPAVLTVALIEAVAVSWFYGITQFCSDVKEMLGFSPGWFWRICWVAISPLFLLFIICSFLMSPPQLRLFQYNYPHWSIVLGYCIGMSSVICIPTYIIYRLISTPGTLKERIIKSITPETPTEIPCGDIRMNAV

SMILES	Ki [1]	Ki [2]
CN1CCC(Oc2nc(-c3ccccc3)nc3ccccc23)CC1	> 10 µM	9.1 µM
C[C@H](Nc1nc(-c2ccccc2)nc2ccccc12)c1ccccc1	> 10 µM	1.8 µM
CN1C2CCC1CC(Oc1nc(-c3ccccc3)nc3ccccc13)C2 (stereo not drawn)	5.1 µM	5.1 µM
c1ccc(-c2nc(SC(c3ccccc3)c3ccccc3)c3ccccc3n2)cc1	> 10 µM	> 10 µM
c1ccc(-c2nc(NC(c3ccccc3)c3ccccc3)c3ccccc3n2)cc1	> 10 µM	0.53 µM
c1ccc(-c2nc(NCC(c3ccccc3)c3ccccc3)c3ccccc3n2)cc1	> 10 µM	5.4 µM
C[C@@H](Nc1nc(-c2ccccc2)nc2ccccc12)c1ccccc1	> 10 µM	6.1 µM

Further lines, results first:

Ki [1]	Ki [2]	SMILES
> 10 µM	–	CN(C)CCCOc1nc(-c2ccccc2)nc2ccccc12
> 10 µM	> 10 µM	CN(C)CCCNc1nc(-c2ccccc2)nc2ccccc12
> 10 µM	7.9 µM	c1ccc(CNc2nc(-c3ccccc3)nc3ccccc23)cc1
> 10 µM	> 10 µM	c1ccc(-c2nc(NCCC(c3ccccc3)c3ccccc3)c3ccccc3n2)cc1
9.6 µM	6.1 µM	CN(C)CCCSc1nc(-c2ccccc2)nc2ccccc12
